Reference: US10660967B2, “Curcumin conjugates and methods of use thereof” (priority 2016, dated 2020)
“And” between values parts separate entries of the source, which are not always exact repeats. Equal entries are not always repeated.

Tested on: carrageenan induced paw edema
Test: Anti-inflammatory activity: acute carrageenan induced paw edema in rats
Format: in vivo, Wister rats
Settings: 10 mg kg^−1 indomethacin mol equivalent; for % inhibition of edema / Mean edema thickness: intraperitoneally; for Mean edema thickness: mean ± SE; for Potency (% inhibition of edema relative to that of indomethacin reference standard): at 4 h effect
In short: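 Wistar rats (120–150 g, n=6/group) received subplantar 1% carrageenan in the right hind paw, and DMSO-vehicle animals served as controls. Results are given as % inhibition of edema thickness versus control.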

| Compound | % inhibition of edema (1 h) | Mean edema thickness (1 h) | % inhibition of edema (2 h) | Mean edema thickness (2 h) | % inhibition of edema (3 h) | % inhibition of edema (4 h) | % inhibition of edema (24 h) | Mean edema thickness (24 h) | Potency (% inhibition of edema relative to that of indomethacin reference standard) | Mean edema thickness (3 h) [mm] | Mean edema thickness (4 h) [mm] |
| --- | --- | --- | --- | --- | --- | --- | --- | --- | --- | --- | --- |
| CC[C@H](C)[C@H](N)C(=O)Oc1ccc(/C=C/C(=O)CC(=O)/C=C/c2ccc(OC(=O)[C@@H](N)[C@@H](C)CC)c(OC)c2)cc1OC.Cl.Cl [Compound 42] | 59% and 33% | 0.99 ± 0.09 mm and 1.61 ± 0.07 mm | 54% and 36% | 0.95 ± 0.09 mm and 1.31 ± 0.09 mm | 65% and 47% | 98% and 76% | 35% and 30% | 0.54 ± 0.01 mm and 0.58 ± 0.08 mm | 113 and 87 | – | – |
| COc1cc(/C=C/C(=O)CC(=O)/C=C/c2ccc(OC(=O)[C@@H](CCSC)NC(=O)OCc3ccccc3)c(OC)c2)ccc1OC(=O)[C@@H](CCSC)NC(=O)OCc1ccccc1 [Compound 20] | 79% | 0.51 ± 0.04 mm | 80% | 0.41 ± 0.03 mm | 85% | 94% | 90% | 0.08 ± 0.01 mm | 108 | 0.27 ± 0.01 | 0.08 ± 0.02 |
| CC(C)Cc1ccc(C(C)C(=O)O)cc1 (stereo not drawn) [Compound 3] | 20% | 1.93 ± 0.21 mm | 60% | 0.82 ± 0.13 mm | 65% | 79% | 14% | 0.71 ± 0.04 mm | – | 0.63 ± 0.09 | 0.29 ± 0.01 |
| COc1cc(/C=C/C(=O)CC(=O)/C=C/c2ccc(OC(=O)CNC(=O)OC(C)(C)C)c(OC)c2)ccc1OC(=O)CNC(=O)OC(C)(C)C [Compound 22] | 43% | 1.37 ± 0.18 mm | 44% | 1.16 ± 0.14 mm | 44% | 48% | 47% | 0.44 ± 0.05 mm | 55 | 1.00 ± 0.11 | 0.73 ± 0.09 |
| COc1cc(/C=C/C(=O)CC(=O)/C=C/c2ccc(OC(=O)[C@H](CCSC)NC(=O)OCc3ccccc3)c(OC)c2)ccc1OC(=O)[C@H](CCSC)NC(=O)OCc1ccccc1 [Compound 10] | 76% | 0.58 ± 0.15 mm | 80% | 0.41 ± 0.11 mm | 86% | 88% | 94% | 0.05 ± 0.01 mm | 101 | 0.25 ± 0.08 | 0.17 ± 0.02 |
| COc1cc(/C=C/C(=O)CC(=O)/C=C/c2ccc(OC(=O)[C@H](CCC(N)=O)NC(=O)OCc3ccccc3)c(OC)c2)ccc1OC(=O)[C@H](CCC(N)=O)NC(=O)OCc1ccccc1 [Compound 21] | 51% | 1.18 ± 0.11 mm | 47% | 1.09 ± 0.19 mm | 45% | 44% | 4% | 0.80 ± 0.05 mm | 51 | 0.99 ± 0.09 | 0.78 ± 0.10 |
| COc1cc(/C=C/C(=O)CC(=O)/C=C/c2ccc(OC(=O)[C@@H](N)CCC(N)=O)c(OC)c2)ccc1OC(=O)[C@@H](N)CCC(N)=O.Cl.Cl [Compound 43] | 46% | 1.29 ± 0.19 mm | 45% | 1.14 ± 0.11 mm | 43% | 42% | 31% | 0.57 ± 0.09 mm | 48 | 1.02 ± 0.14 | 0.81 ± 0.11 |
| COc1cc(/C=C/C(=O)CC(=O)/C=C/c2ccc(OC(=O)CCNC(=O)OC(C)(C)C)c(OC)c2)ccc1OC(=O)CCNC(=O)OC(C)(C)C [Compound 27] | 31% | 1.66 ± 0.19 mm | 33% | 1.38 ± 0.11 mm | 45% | 61% | 28% | 0.60 ± 0.03 mm | 70 | 0.99 ± 0.12 | 0.55 ± 0.07 |
| COc1cc(/C=C/C(=O)CC(=O)/C=C/c2ccc(OC(=O)C(C)NC(=O)OC(C)(C)C)c(OC)c2)ccc1OC(=O)C(C)NC(=O)OC(C)(C)C (stereo not drawn) [Compound 25] | 11% | 2.15 ± 0.14 mm | 16% | 1.74 ± 0.18 mm | 25% | 40% | 29% | 0.59 ± 0.09 mm | 46 | 1.34 ± 0.20 | 0.84 ± 0.12 |
| COc1cc(/C=C/C(=O)CC(=O)/C=C/c2ccc(OC(=O)[C@H](CC(C)C)NC(=O)OCC3c4ccccc4-c4ccccc43)c(OC)c2)ccc1OC(=O)[C@H](CC(C)C)NC(=O)OCC1c2ccccc2-c2ccccc21 [Compound 16] | 40% | 1.45 ± 0.18 mm | 41% | 1.22 ± 0.25 mm | 48% | 50% | 40% | 0.50 ± 0.10 mm | 57 | 0.93 ± 0.20 | 0.70 ± 0.19 |
| COc1cc(/C=C/C(=O)CC(=O)/C=C/c2ccc(OC(=O)[C@H](CCSC)NC(=O)OC(C)(C)C)c(OC)c2)ccc1OC(=O)[C@H](CCSC)NC(=O)OC(C)(C)C [Compound 28] | 34% | 1.59 ± 0.21 mm | 36% | 1.31 ± 0.18 mm | 44% | 88% | 23% | 0.64 ± 0.05 mm | 101 | 1.01 ± 0.17 | 0.17 ± 0.02 |
| COc1cc(/C=C/C(=O)CC(=O)/C=C/c2ccc(OC(=O)[C@@H](NC(=O)OCC3c4ccccc4-c4ccccc43)C(C)C)c(OC)c2)ccc1OC(=O)[C@@H](NC(=O)OCC1c2ccccc2-c2ccccc21)C(C)C [Compound 15] | 22% | 1.88 ± 0.22 mm | 49% | 1.05 ± 0.23 mm | 50% | 53% | 47% | 0.44 ± 0.11 mm | 61 | 0.90 ± 0.17 | 0.66 ± 0.19 |
